PubChem BioAssay AID1963843 (Molecular Pharmacology Branch, DTP, NCI, 2024)
Several values for one entry are separate records, joined by “and”; a condition that tells them apart may be missing. Equal entries are not always repeated.

System: 616215-338-R-J1-PDC complex spheroid viability
Experiment: Anticancer human tumor 616215-338-R-J1-PDC patient-derived colon adenocarcinoma cell line growth inhibition [POLQ]
Details: for viability, T/C: stronger effect = lower value
Method: Multicellular complex tumor spheroid response to Polymerase (POL) inhibitors (novobiocin, ART-558, RP6685) in combination with a variety of drugs and investigational agents in selected tumor cell lines
The POL inhibitors (novobiocin, ART-558, and RP6685) were evaluated both individually and in combination with standard of care and investigational anticancer small molecules within a complex spheroid model of solid tumors. . Complex spheroids include a stromal component modeled by human endothelial cells (HUVEC) and fibroblasts modeled by human mesenchymal stem cells (MSCs). The concentration ranges selected for each drug and investigational agent were based upon clinically achievable concentrations if the clinical Cmax of the agent was known.
Compounds. The drugs and investigational agents: novobiocin (NSC847541), ART-558 (NSC835418), RP-6685 (NSC848927), peposertib (NSC802822), ceralasertib (NSC780249), elimusertib (NSC800525), camonsertib (NSC841442), AZD-1390 (NSC803789), olaparib (NSC753686), talazoparib (NSC767125), rucaparib (NSC756644), sotorasib (NSC818433), MRTX-1133 (NSC836407), SN-38 (NSC673596), topotecan (NSC609699), epotoside (NSC141540), doxorubicin (NSC123127), gemcitabine (NSC613327), 5-fluorouracil (NSC19893), paclitaxel (NSC125973), vemurafenib (NSC761431), MSA-2 (NSC828583), SN-011 (NSC837082), adavosertib (NSC754352), prexasertib (NSC758257), carboplatin (NSC241240) and oxaliplatin (NSC266046), were obtained from the National Cancer Institute (NCI) Developmental Therapeutics Program Chemical Repository (21). The FDA-approved anticancer drug set is available from the Developmental Therapeutics Program at https://dtp.cancer.gov/organization/dscb/obtaining/. […] The stock solutions were prepared in dimethyl sulfoxide (DMSO, Sigma-Aldrich, St. Louis, MO, cat. D2650), except for the platinum compounds which were prepared in saline (Quality Biological, Gaithersburg, MD, cat. 114-055-101), at 800-fold the tested concentration and stored at -70 degrees C prior to their use. All drugs and investigational agents were tested over a range starting from a high concentration at or near the clinical Cmax and decreasing in half-log increments. If the clinical Cmax for an agent had not been determined, the highest concentration tested was 10 microM, except for SN-38, which was tested at a high concentration of 1 microM.
Cell Culture. All cells were maintained in an incubator at 37 degrees C and 5% CO2 with 95% humidity. The PDC lines were cultured according to standard operating procedures established by the NCI PDMR (https://pdmr.cancer.gov). Table 3 of the manuscript, lists the cell lines along with the number of the three cell types plated to form the mct-spheroids and media for tumor cell growth. After thawing, all PDC lines, except 997537-175-T-J1-PDC and 415267-285-R-J2-PDC, were cultured in Matrigel-coated flasks prepared with a working solution of 1X Ham's F-12 nutrient mix, without supplementation (Thermo Fisher Scientific, cat. 11765054), 100 U/mL penicillin-streptomycin (Thermo Fisher Scientific, cat. 15140122), and 2.5% Matrigel (Corning Inc., Corning, NY, cat. 354248) for the first three passages. The two PDC lines 997537-175-T-J1-PDC and 415267-285-R-J2-PDC were cultured on uncoated flasks. The 857933-349-R-J2-PDC line was cultured in 6C/Colon 1B media containing advanced DMEM/F-12 (Thermo Fisher Scientific, cat. 12634028), 10 mM HEPES (Thermo Fisher Scientific, cat. 15630080), 1X GlutaMAX supplement (Thermo Fisher Scientific, cat. 35050061), 0.1 mg/mL primocin (InvivoGen, San Diego, CA, cat. ant-pm-2), 10% defined fetal bovine serum, heat inactivated (HyClone Laboratories Inc., Logan, UT, cat. SH30070.03HI), 50% L-WRN conditioned media (ATCC, cat. CRL-3276), 1.25 mM N-Acetyl-L-cysteine (Sigma-Aldrich, cat. A9165), 10 mM nicotinamide (Sigma-Aldrich, cat. N0636), 1X B-27 supplement (Thermo Fisher Scientific, cat. 17504044), 1X N-2 supplement (Thermo Fisher Scientific, cat. […]
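Further: spheroids exposed to compounds for one week before readout.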
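Wherever viability, T/C is given: percent viability relative to DMSO vehicle wells taken as 100%.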

SMILES	viability, T/C (compound 0.0316 µM)	viability, T/C (compound 0.1 µM)	viability, T/C (compound 0.316 µM)	viability, T/C (compound 1 µM)	viability, T/C (compound 3.16 µM)	viability, T/C (compound 10 µM)	IC50 (curve of compound)
CCc1cc2c(N3CCc4c(cc(Cn5ccnc5)cc4-c4cn(C)nc4C(F)(F)F)C3=O)cc(C)nc2c(OC)n1	111% and 112% and 115%	99.7% and 102% and 100%	103% and 79.5% and 78.1%	98.2% and 62.6% and 69.1%	62.3% and 54.4% and 53.4%	51.3% and 41.3% and 39.7%	> 10 µM and 3.64 µM and 4.13 µM
CC1COCCN1c1cc(C2(O)CC3CCC(C2)O3)c2cnn(-c3ccn[nH]3)c2n1 (stereo not drawn)	99.2% and 95.5% and 88%	91.8% and 93% and 73.8%	73.3% and 70.1% and 46.3%	76.6% and 53.7% and 34.7%	54% and 46% and 21%	40.1% and 32.2% and 19.3%	–
